Read-outs that look alike come from different tables or passages of the source.
Target: T1, Akt1 (Homo sapiens, UniProt P31749, S473D)
T1 construct: The version of Akt used in these studies lacks the pleckstrin homology (PH) domain
Experiment: Akt1 kinase assay, fluorescence polarization (IMAP)
Type: biochemical
Summary of the method: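 His-tagged Akt1 lacking the PH domain, Thr308-prephosphorylated, 1.5 ng per reaction, with 4 μM ATP and 40 nM TAMRA-Crosstide (solution concentrations) in Tris pH 7.5/MgCl2/DTT buffer. Incubated 30 min at ambient temperature; IMAP fluorescence polarization read (544/615 nm). IC50 after subtraction of no-enzyme background.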

[1] = Table 1, concentration bins, read-out: Concentration Range at which exemplary compounds of formula I inhibit Akt kinase activity
[2] = average Akt kinase activity (IC50), read-out: Avg Akt kinase, μM (50% inhibition)
[3] = read-out: Avg Akt kinase, μM (50% inhibition)
[4] = Table 3, read-out: Avg Akt kinase, μM (50% inhibition)

T1 sequence (P31749 118-480 S473D limits assumed, species assumed): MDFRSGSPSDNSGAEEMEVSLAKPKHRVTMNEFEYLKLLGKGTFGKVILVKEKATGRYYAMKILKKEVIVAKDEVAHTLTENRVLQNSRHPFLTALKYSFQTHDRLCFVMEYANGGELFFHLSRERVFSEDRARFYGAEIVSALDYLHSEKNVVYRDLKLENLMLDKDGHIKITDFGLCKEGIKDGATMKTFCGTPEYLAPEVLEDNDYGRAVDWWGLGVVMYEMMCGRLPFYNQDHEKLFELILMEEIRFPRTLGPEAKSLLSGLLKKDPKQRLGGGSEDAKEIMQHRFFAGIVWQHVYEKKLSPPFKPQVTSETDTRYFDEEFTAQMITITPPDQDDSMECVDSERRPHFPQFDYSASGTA

Compound	IC50 [1] [µM]	IC50 [2] [µM]	IC50 [3] [µM]	IC50 [4] [µM]
Cc1cccc(F)c1C(=O)NC[C@@]1(N)CCN(c2ncnc3[nH]cc(Cl)c23)C1 [Example 122]	0.0101 to 0.1	0.029		
Cc1c[nH]c2ncnc(N3CC[C@](N)(CNC(=O)c4cccc(F)c4Cl)C3)c12 [Example 123, N-{[(3S)-3-amino-1-(5-methyl-7H-pyrrolo[2,3-d]pyrimidin-4-yl)pyrrolidin-3-yl]methyl}-2-chloro-3-fluorobenzamide]	0.00251 to 0.01	0.00526		
N[C@]1(CNC(=O)c2cccc(F)c2Cl)CCN(c2ncnc3[nH]cc(Cl)c23)C1 [Example 124, N-{[(3S)-3-amino-1-(5-chloro-7H-pyrrolo[2,3-d]pyrimidin-4-yl)pyrrolidin-3-yl]methyl}-2-chloro-3-fluorobenzamide]	0.00251 to 0.01	0.00691		
CCc1c[nH]c2ncnc(N3CC[C@](N)(CNC(=O)c4cccc(F)c4Cl)C3)c12 [Example 125, N-{[(3S)-3-amino-1-(5-ethyl-7H-pyrrolo[2,3-d]pyrimidin-4-yl)pyrrolidin-3-yl]methyl}-2-chloro-3-fluorobenzamide]	0.0101 to 0.1	0.0139		
Cc1c[nH]c2ncnc(N3CC[C@](N)(CNC(=O)c4c(F)cccc4F)C3)c12 [Example 126, N-{[(3S)-3-amino-1-(5-methyl-7H-pyrrolo[2,3-d]pyrimidin-4-yl)pyrrolidin-3-yl]methyl}-2,6-difluorobenzamide]	0.0101 to 0.1	0.0199		
Cc1ccccc1C(=O)NC[C@@]1(N)CCN(c2ncnc3[nH]cc(C)c23)C1 [Example 127, N-{[(3S)-3-amino-1-(5-methyl-7H-pyrrolo[2,3-d]pyrimidin-4-yl)pyrrolidin-3-yl]methyl}-2-methylbenzamide]	0.0101 to 0.1	0.0362		
CCc1c[nH]c2ncnc(N3CC[C@](N)(CNC(=O)c4ccccc4Cl)C3)c12 [Example 128]	0.0101 to 0.1	0.0147		
N[C@]1(CNC(=O)c2ccc(F)c(F)c2)CCN(c2ncnc3[nH]cc(Cl)c23)C1 [Example 129, N-{[(3S)-3-amino-1-(5-chloro-7H-pyrrolo[2,3-d]pyrimidin-4-yl)pyrrolidin-3-yl]methyl}-3,4-difluorobenzamide]	0.00251 to 0.01	0.00334		
N[C@]1(CNC(=O)c2c(F)cccc2F)CCN(c2ncnc3[nH]cc(Cl)c23)C1 [Example 130]	0.00251 to 0.01	0.00906		
Cc1ccccc1C(=O)NC[C@@]1(N)CCN(c2ncnc3[nH]cc(Cl)c23)C1 [Example 131]	0.00251 to 0.01	0.01		
CCc1c[nH]c2ncnc(N3CC[C@](N)(CNC(=O)c4c(F)ccc(F)c4F)C3)c12 [Example 132]	0.0101 to 0.1	0.0175		
CCc1c[nH]c2ncnc(N3CC[C@](N)(CNC(=O)c4cccc(Cl)c4)C3)c12 [Example 133]	0.00251 to 0.01	0.00447		
CNC1(CNC(=O)c2ccccc2)CCN(c2ncnc3[nH]cc(Cl)c23)C1 (stereo not shown) [Example 194]	0.0101 to 0.1		0.0897	
Cc1c[nH]c2ncnc(N3CCC(N)(CN(CCN(C)C)C(=O)Nc4ccccc4)C3)c12 (stereo not shown) [Example 195, 1-{[3-amino-1-(5-methyl-7H-pyrrolo[2,3-d]pyrimidin-4-yl)pyrrolidin-3-yl]methyl}-1-[2-(dimethylamino)ethyl]-3-phenylurea]	0.101 to 10		0.141	
Cc1c[nH]c2ncnc(N3CCC(N)(CN(C)C(=O)c4ccc(Cl)cc4)C3)c12 (stereo not shown) [Example 196, N-((3-amino-1-(5-methyl-7H-pyrrolo[2,3-d]pyrimidin-4-yl)pyrrolidin-3-yl)methyl)-4-chloro-N-methylbenzamide]	0.101 to 10		0.123	
Cc1c[nH]c2ncnc(N3CCC(N)(CN(C)C(=O)c4ccccc4F)C3)c12 (stereo not shown) [Example 197, N-((3-amino-1-(5-methyl-7H-pyrrolo[2,3-d]pyrimidin-4-yl)pyrrolidin-3-yl)methyl)-2-fluoro-N-methylbenzamide]	0.101 to 10		0.148	
Cc1c[nH]c2ncnc(N3CCC(N)(CNS(=O)(=O)c4c(F)cccc4F)C3)c12 (stereo not shown) [Example 198, N-{[3-amino-1-(5-methyl-7H-pyrrolo[2,3-d]pyrimidin-4-yl)pyrrolidin-3-yl]methyl}-2,6-difluorobenzenesulfonamide]	0.0101 to 0.1		0.00267	
(E)-3-(3-trifluoromethyl)styryl)-1-(5-methyl-7H-pyrrolo[2,3-d]pyrimidin-4-yl)-3-amine [Example 68]		1.14		
N-{[3-amino-1-(1H-pyrrolo[2,3-b]pyridin-4-yl)pyrrolidin-3-yl]methyl}-5-chloropyrimidin-2-amine [Example 59]				0.0035
N-{[3-amino-1-(5-methyl-7H-pyrrolo[2,3-d]pyrimidin-4-yl)pyrrolidin-3-yl]methyl}pyrimidin-2-amine [Example 58]				0.123

— patent publication US20080051419A1, “AMINE DERIVATIVES USEFUL AS ANTICANCER AGENTS” (PFIZER INC., priority 2006, published 2008)
